Laboratory results published in patent US20050208542A1, “Methods of genotoxicity screening, and biosensors” (priority 2004, published 2005).

Legend:
ST ds-DNA = assay: Capillary electrophoretic analysis of hydrolyzed DNA reacted with styrene oxide; type: biochemical, salmon testes; conditions: (PDDA/DNA)2 film on carbon cloth, saturated styrene oxide, 48 hr, 37° C., compared with undamaged hydrolyzed DNA
Protocol: (§1) Capillary electrophoretic analysis. A Beckman PACE 5000 with UV detector at 254 nm was used for capillary electrophoresis (CE) to analyze hydrolyzed DNA that had been reacted with styrene oxide. 1 mg mL^−1 ST ds-DNA in 50 mL buffer or (PDDA/DNA)2 films on 3×10 cm carbon cloth in solution were reacted in 50 mL buffer and 0.87 mmol styrene oxide at 37° C. with stirring. Reacted DNA in solution or in films was hydrolyzed by incubating with deoxyribonuclease I (0.1 mg per mg of DNA) for 20 hr at 37° C., followed by incubation with phosphodiesterase I (0.01 unit/mg DNA) and phosphatase, alkaline (0.6 unit/mg DNA) for 5 hours at 37° C. The resulting samples, consisting mainly of individual nucleosides, were analyzed using CE with 20 mM pH 7 phosphate buffer and 100 mM SDS. The capillary was 75 μm×50 cm, with a polyimide coating. To make standard styrene oxide adducts, 0.5 mg mL^−1 guanosine or adenosine were reacted with styrene oxide.
It was previously shown that that styrene oxide is formed from styrene using Mb and cyt P450cam films. However, available capillary electrophoresis and HPLC-MS/MS methods were not sensitive enough to detect and identify damaged DNA directly from the protein-DNA films. Thus, capillary electrophoresis and HPLC-MS were used to confirm that reaction of styrene oxide with DNA in (PDDA/DNA)2 films and in solution gave the reported DNA-styrene oxide adducts. […]

ds-ST-DNA = assay: HPLC-MS/MS of hydrolyzed DNA reacted with styrene oxide; type: biochemical, salmon testes; conditions: ds-ST-DNA incubated with styrene oxide 48 hours at 37° C., HPLC-MS/MS (MRM)
Protocol: as §1
Liquid chromatography (LC)-mass spectrometry (MS). A Perkin-Elmer LC with diode-array (255 nm and 280 nm) and mass spectrometer (Micromass, Quattro II) detection were used. Full-scan spectra were taken at low cone voltage (15 V) in the positive ion mode (ESI). The HPLC column was Restek Ultra C-18 reversed-phase (i. d. 2.1 mm, length 10 cm, particle size 5 μm). Solvents were A: 5% acetonitrile/95% water with 0.05% TFA and B: 100% acetonitrile with 0.05% TFA. […]

ds-CT DNA = assay: ECL/SWV of (Ru-PVP/ds-DNA)2 films after incubation; conditions: saturated solution, 37° C., pH 5.5
Protocol: Film assembly. DNA-redox polymer films were constructed by the layer-by-layer electrostatic assembly method. Basal plane PG electrodes were polished with 400 grit SiC paper and then with 0.3 μm α-alumina slurries on Buehler Microcloth, washed with water, sonicated in ethanol for 15 minutes, and then sonicated in water for 15 minutes. Layers were constructed by placing a 30 μL drop of 0.2% aqueous [Ru(bpy)2(PVP)10](CIO4)2 onto each PG electrode, allowing 15 minutes to achieve saturated adsorption and then washing with water. Subsequently, 30 μL of DNA solution (2 mg mL^−1 DNA in 5 mM pH 5.5 acetate buffer+0.05 M NaCl) was place on this PG surface, allowed to adsorb 15 min, and then washed with water. This sequence was repeated to obtain films with 2 redox polymer/DNA bilayers. Films containing ss-DNA and other polynucleotides were also assembled in this way. Assembly of films was monitored at each step with a quartz crystal microbalance.
Reactions with Styrene Oxide. Incubations of films were done in styrene oxide solutions in a stirred reactor at 37.0±0.5° C. […] PG electrodes coated with polynucleotide or DNA films were incubated in the stirred emulsion and then rinsed with water and transferred to the electro-chemical cell containing pH 5.5 buffer for SWV/ECL analysis.
Error bars in FIGS. 22, 23 are mainly the result of electrode-to-electrode variability.

poly[G] = assay: ECL/SWV of (Ru-PVP/poly[G])2 films after incubation; type: biochemical; conditions: 10 minutes incubation, saturated solution
Protocol: Reactions with Styrene Oxide.
In addition to catalytic oxidation of guanines, it is possible that adducts formed on DNA by reaction with styrene oxide could be catalytically oxidized by the ruthenium metallopolymer. To assess this possibility, styrene oxide was incubated with films containing individual polynucleotides and the metallopolymer. […] An 80% increase in SWV peak current and a 40% increase in ECL intensity was found.

ds-DNA [1] = assay: Catalytic SWV with Ru(bpy)3^2+ of PDDA/ds-DNA(/Mb/ds-DNA)2 films after incubation; type: biochemical, calf thymus (CT), salmon testes (ST)
ds-DNA [2] = assay: SWV with Co(bpy)3^3+ electroactive probe, PDDA/ds-DNA(/Mb/ds-DNA)2 films; type: biochemical, calf thymus (CT), salmon testes (ST)
Protocol: (§2) Film construction. Films were grown on PG disks (pyrolytic graphite) that had been abraded on 400 grit SiC paper, then with coarse Emery paper (3M Crystal Bay), then ultrasonicated in water for 30 seconds. Layers of ds-DNA and protein were adsorbed alternately for 15 minutes onto the rough PG electrodes, and washed with water between adsorption steps. Adsorbate solutions were: (a) 2 mg mL^−1 DNA in 5 mM pH 7.1 TRIS buffer and 0.50 M NaCl; (b) 2 mg mL^−1 PDDA in 50 mM NaCl; (c) 3 mg mL^−1 Mb in 10 mM pH 5.5 acetate buffer; and (d) 1 mg mL^−1 cyt P450cam in the pH 5.5 buffer. Film of architecture denoted PDDA/DNA(/Mb/DNA)2 or PDDA/DNA(/cyt P450cam/DNA)2 were employed.
(§3) Incubation of DNA/protein films for metabolite generation and reaction with DNA was done in a thermostated vessel at 37° C. containing 1-4% styrene (by volume). To activate the enzymes for styrene oxide formation, 0.2 to 2 mM H2O2 was added to 10 mL pH 5.5 buffer containing 50 mM NaCl. […] For the probe binding method, washed electrodes were transferred to pH 5.5 buffer containing 20 μM Co(bpy)3^3+.
(§4) Voltammetry. CH Instruments 660A and CH 430 electrochemical analyzers were used for square wave voltammetry (SWV), with ˜95% ohmic drop compensated. […]
(§5) The time course of the reaction can readily be monitored via the ratio of initial SWV peak current for a given film (Ip,i) to that after reaction (Ip,f). […]

CT-ds-DNA = assay: SWV of Ru/Mb/DNA films (PSS/ClRu-PVP/CT-ds-DNA/(Mb/CT-ds-DNA)2) after incubation; conditions: for SWV peak current at 0.75 V: saturated styrene or toluene and H2O2, pH 5.5
Protocol: Film Assembly. Basal plane PG electrodes were polished with 400-grit SiC paper and then ultrasonicated for 30 seconds each in ethanol and then in water. Electrodes were dried in nitrogen and dipped into 6 mg mL^−1 PSS containing 0.5 M NaCl for 15 min. After washing with water, these PG electrodes were then dipped into 0.05% (m/V) [Ru(bpy)2(PVP)10Cl)]Cl (denoted hereafter as CIRu-PVP) in 5% ethanol/water for 15 minutes. Adsorption for 15 min provides steady-state adsorption of PSS on oppositely charged surfaces.^18, 19
After fabricating PSS/CIRu-PVP films, electrodes were dipped into 2 mg mL^−1 CT ds-DNA in pH 7.0 Tris buffer containing 0.5 M NaCl for 15 min, rinsed with water, and then dipped into 2 mg mL^−1 PDDA. Alternate adsorption cycles were repeated until the desired number of layers were made. Final film structure is denoted as PSS/CIRu-PVP/CT-ds-DNA/PDDA/CT-ds-DNA.
For films containing Mb, PG electrodes were abraded with 400-grit SiC paper, rinsed with water, further roughened using medium Crystal Bay emery paper (PH4 3M 001K), and then ultrasonicted in ethanol and water successively for 30 seconds. […] Additional steps were the same as above except PDDA was replaced with 3 mg mL^−1 Mb in pH 5.5 buffer. Final film structure is denoted as PSS/CIRu-PVP/CT-ds-DNA/(Mb/CT-ds-DNA)2. Electrochemical surface area was estimated at 0.21 cm^2 using peak currents of soluble ferricyanide and the Randles-Sevcik equation.
H2O2 activates Mb to oxidize styrene to styrene oxide.

ST-ds-DNA = assay: Catalytic SWV with Ru(bpy)3^2+ of DNA(Cyt P450cam/ST-ds-DNA)2 films after incubation
Protocol: as §2
Incubation of DNA/protein films for metabolite generation and reaction with DNA was done in a thermostated vessel at 37° C. containing 1-4% styrene (by volume). To activate the enzymes for styrene oxide formation, 0.2 to 2 mM H2O2 was added to 10 mL pH 5.5 buffer containing 50 mM NaCl. After incubation, the electrodes were rinsed with water and transferred to pH 5.5 buffer containing 50 μM Ru(bpy)3^2+ for analysis by catalytic SWV.
as §4

ds-CT-DNA = assay: SWV with Co(bpy)3^3+ electroactive probe, PDDA/ds-CT-DNA(cyt P450cam/ds-CT-DNA)2 films; conditions: 4% styrene + 2 mM H2O2
Protocol: as §2, §3
CH Instruments 660A and CH 430 electrochemical analyzers were used for square wave voltammetry (SWV), with ˜95% ohmic drop compensated. […]
as §5

Structure (SMILES): c1ccc(C2CO2)cc1 (stereo not drawn) [styrene oxide]
- DNA-styrene oxide adduct peaks in capillary electropherogram (ST ds-DNA): new peaks evident
- Number of styrene oxide adducts each for dA and dG (ds-ST-DNA): at least 4
- ECL peak vs. incubation time (ds-CT DNA): increases in the ECL and the SWV peaks were observed with increasing incubation time
- SWV peak vs. incubation time (ds-CT DNA): increases in the ECL and the SWV peaks were observed with increasing incubation time
- Increase in ECL intensity (poly[G]): 40%
- Increase in SWV peak current (poly[G]): 80%

Structure (SMILES): C=Cc1ccccc1 [styrene]
- Dependence of catalytic SWV peak height on styrene concentration (ds-DNA [1]; Mb/DNA films activated by H2O2, styrene 1-4%): did not depend on styrene concentration between 1-4%
- Catalytic SWV oxidation peak current (DNA damage) (ds-DNA [1]; Mb/DNA films, 37° C., pH 5.5, with 0.2 mM H2O2, 2% styrene, 2% toluene or 0.2 mM benzaldehyde, read in 50 μM Ru(bpy)3^2+): increased with reaction time
- Catalytic SWV oxidation peak current (DNA damage) (ds-DNA [1]; ST-DNA/Mb films, 2% styrene but no H2O2): No significant increases in peak current or trends with incubation time
- Ip,i/Ip,f peak current ratio vs. reaction time (ds-DNA [2]; Mb films, 4% styrene or 4% toluene + 2 mM hydrogen peroxide, over 45 min): linear increases
- SWV peak height for reduction of Co(bpy)3^3+ at 0.04 V vs. SCE (ds-DNA [2]; Mb/ST-ds-DNA films, 4% styrene and 2 mM H2O2, 37° C., pH 5.5, 20 μM Co(bpy)3^3+): decreased with incubation time
- Ratio of final peak current after incubation to initial peak current (CT-ds-DNA; saturated styrene and H2O2, pH 5.5): showed an increase over the first 15 minutes and then decreased gradually
- SWV peak current at 0.75 V (CT-ds-DNA): increased
- Rate of increase of SWV peak current, less than with Mb/ST-DNA films (ST-ds-DNA; cyt P450cam films versus Mb/ST-DNA films, styrene and hydrogen peroxide): about 30%
- SWV catalytic peak current (DNA damage) (ST-ds-DNA; cyt P450cam/ST-ds-DNA films, 2% styrene + 0.2 mM H2O2, 50 μM Ru(bpy)3^2+): rapid increase in SWV peak current for the first five minutes was followed by a slower increase from 5-30 minutes
- Slope of Ip,i/Ip,f peak ratio vs. time, compared with Mb films (ds-CT-DNA): smaller slopes

Structure (SMILES): Cc1ccccc1 [toluene]
- ECL peak vs. incubation time (ds-CT DNA): showed no trends with incubation time
- SWV peak vs. incubation time (ds-CT DNA): showed no trends with incubation time
- Increase in ECL intensity (poly[G]): nearly identical to initial values
- Increase in SWV peak current (poly[G]): nearly identical to initial values
- SWV peak current at 0.75 V (CT-ds-DNA): did not show increases
